Tested on: 3WJ (PAGE) (DNA, junction) CGGAACGGCACTCG/CGAGTGCAGCGTGG/CCACGCTCGTTCCG
Test: PAGE junction assembly
Details: 10 mM NaCl, 1x TB

**Q.** For `C(=Nc1ccc(Cc2ccc(N=Cc3ccccn3)cc2)cc1)c1ccccn1.C(=Nc1ccc(Cc2ccc(N=Cc3ccccn3)cc2)cc1)c1ccccn1.C(=Nc1ccc(Cc2ccc(N=Cc3ccccn3)cc2)cc1)c1ccccn1.[Ni+2].[Ni+2]`, which binding is on record?
**A.** Its binding is “yes”.

**Q.** How did the binding (0.1 to 5 equivalents) turn out when `[Pt+2].[Pt+2].c1cncc(Oc2ccc(Oc3cccnc3)cc2)c1.c1cncc(Oc2ccc(Oc3cccnc3)cc2)c1.c1cncc(Oc2ccc(Oc3cccnc3)cc2)c1.c1cncc(Oc2ccc(Oc3cccnc3)cc2)c1` was run?
**A.** The binding was “yes”.

Source: PMC12593396 (2025)
